What was measured:
[1] = system: CYP3A4 inducibility (luciferase reporter, CYP3A4 -362 to +11 fragment); experiment: in vitro reporter (luciferase) assay, cultured cells infected with AdCYP3A4-362 virus; conditions: 10 μM in DMSO, human liver-cancer-derived cultured cells
Description: (§1) A recombinant adenovirus was constructed through the following process.
(§2) Briefly, cells were seeded in a 24-well plate in an amount of 2.0×10^5 cells per well. On the following day; i.e., day 1, the cells were treated with a drug. On day 2, the drug-treated cells were infected with virus, and, 48 hours after viral infection, the cells were recovered. The recovered cells were lysed by use of a reporter lysis buffer (RLB), and the luciferase activity of the lysate was measured.
All these drugs are known to elicit CYP3A4 induction when administered to humans.

[2] = system: human CYP3A4 inducibility (luciferase reporter AdCYP3A4-362-7K with human PXR expression); experiment: in vivo assay, mice infected with virus (A) (AdCYP3A4-362-7K) and virus (B) (AdhPXR); conditions: 100 mg/kg/day×3; virus (A) AdCYP3A4-362-7K, co-administration with virus (B) per FIG. 8
Description: (§3) The initial plan for viral administration was an intravenous route through the tail vein. […] Therefore, the route was changed to intraperitoneal administration so that the animal could not acutely respond to the virus. […] Two days after virus administration, each animal was dissected to remove the organ of interest (liver). The liver was homogenized and centrifuged at 9,000×g. Luciferase activity of the supernatant (S-9) was measured (FIG. 4).

[3] = system: CYP3A4 inducibility (luciferase reporter AdCYP3A4-362-7K with hPXR expression); experiment: in vitro reporter assay, cultured cells infected with virus (A) (AdCYP3A4-362-7K) and virus (B) (AdhPXR); conditions: 10 μM, virus (A) AdCYP3A4-362-7K plus virus (B) AdhPXR
Description: as §1, §2
(§4) Next, virus (B) (AdhPXR) was employed to thereby cause strong expression of hPXR.

[4] = system: CYP3A4 inducibility (luciferase reporter AdCYP3A4-362); experiment: in vivo assay, luciferase activity in liver S-9 of mice given AdCYP3A4-362 virus; conditions: 100 mg/kg intraperitoneally once a day for three days, liver two days after virus
Description: as §3

[5] = system: CYP3A4 inducibility (luciferase reporter AdCYP3A4-362-7K); experiment: in vitro reporter assay, cultured cells infected with virus (A) (AdCYP3A4-362-7K); conditions: 10 μM, without virus (B)
Description: as §1, §2, §4

## Clc1ccccc1C(c1ccccc1)(c1ccccc1)n1ccnc1 [clotrimazole]
[1]
  elevated luciferase activity level: about eight
[2]
  attained inducibility (transcription activation) in mice infected with virus (A): 1,000 times
[3]
  luciferase activity relative to non-treatment: 60 times
[4]
  increase of luciferase activity in mouse liver S-9 compared with control: about nine
[5]
  induction of luciferase activity: 21 times
